# Key:
# P. gingivalis NCTC 11834 [1] = experiment: Minimum bactericidal concentration (MBC) assay; assay type: cell-based, Porphyromonas gingivalis; details: Table 7
# Description: P. gingivalis strains were cultured and maintained on Wilkins-Chalgren Anaerobe Medium (agar and broth) at pH 7.0; all cultures were incubated anaerobically at 37° C. for 5-7 days.
# (§1) This assay, normally carried out after an MIC assay, determines the minimum concentration of a compound that is lethal to the micro-organism being tested.
# (§2) These samples were then individually sub-cultured on antibiotic-free agar medium, under the incubation conditions described above. Following incubation they were examined visually for microbial growth.
# (§3) The ratio of MIC to MBC should ideally be as close to 1 as possible.
# S. mutans ATCC 25175 [2] = experiment: Minimum inhibitory concentration (MIC) assay; assay type: cell-based, Streptococcus mutans; details: Table 8
# Description: (§4) S. mutans was cultured and maintained on Wilkins-Chalgren Anaerobe Medium (agar and broth) at pH 7.0 supplemented with 1 g/L glucose; all cultures were incubated at 37° C. for 48 hours in an atmosphere containing 5% CO2. For the formation of biofilms in biofilm disruption assays, however, S. mutans was grown in brain-heart infusion broth supplemented with 5% sucrose. This is a standard international method for quantitatively assessing the antimicrobial activity of a compound in a liquid medium. The method used a sterile 96-well microtitre plate, capable of holding about 200 μl of liquid per well. […] The culture medium was as described above. The wells were inoculated with a liquid suspension of freshly grown micro-organism and incubated under the conditions described above. After incubation, the microtitre plate was examined visually (with the aid of a light box) for cloudiness in each well, which would indicate microbial growth. The MIC value was recorded as the lowest concentration of test compound required to inhibit microbial growth, ie the lowest concentration for which the liquid in the well remained clear. The assays were conducted in duplicate (minimum) and included both negative (culture medium with no micro-organisms) and positive (culture medium plus diluting solvent plus micro-organism) controls.
# S. mutans ATCC 25175 [3] = experiment: Minimum bactericidal concentration (MBC) assay; assay type: cell-based, Streptococcus mutans; details: Table 8
# Description: S. mutans was cultured and maintained on Wilkins-Chalgren Anaerobe Medium (agar and broth) at pH 7.0 supplemented with 1 g/L glucose; all cultures were incubated at 37° C. for 48 hours in an atmosphere containing 5% CO2. For the formation of biofilms in biofilm disruption assays, however, S. mutans was grown in brain-heart infusion broth supplemented with 5% sucrose.
# as §1, §2, §3
# P. gingivalis NCTC 11834 [4] = experiment: Minimum inhibitory concentration (MIC) assay; assay type: cell-based, Porphyromonas gingivalis; details: Table 7
# Description: as §4, with “P. gingivalis strains were cultured and” for “S. mutans was cultured and”, “at pH 7.0; all cultures” for “at pH 7.0 supplemented with 1 g/L glucose; all cultures”, “were incubated anaerobically at 37°” for “were incubated at 37°”, “C. for 5-7 days. This is” for “C. for 48 hours in an atmosphere containing 5% CO2. For the formation of biofilms in biofilm disruption assays, however, S. mutans was grown in brain-heart infusion broth supplemented with 5% sucrose. This is”
SMILES,MIC (S. mutans ATCC 25175 [2]),MIC (P. gingivalis NCTC 11834 [4]),MBC (P. gingivalis NCTC 11834 [1]),MIC/MBC ratio (P. gingivalis NCTC 11834 [1]),MBC (S. mutans ATCC 25175 [3]),MIC/MBC ratio (S. mutans ATCC 25175 [3])
"Oc1ccc(O)c(F)c1F [2,3-difluoro-p-hydroquinone]",125 µg/mL,3.9 µg/mL,7.8 µg/mL,0.5,250 µg/mL,0.5
CC1=CC(=O)C(Cl)=CC1=O [2-chloro-5-methyl-p-benzoquinone],62.5 µg/mL,0.98 µg/mL,1.95 µg/mL,0.5,125 µg/mL,0.5
CCc1cc(O)ccc1O [2-ethyl-p-hydroquinone],31.2 µg/mL,0.98 µg/mL,1.95 µg/mL,0.5,125 µg/mL,0.25

# The next lines start with results.
MIC (S. mutans ATCC 25175 [2]),MIC (P. gingivalis NCTC 11834 [4]),SMILES,MBC (P. gingivalis NCTC 11834 [1]),MIC/MBC ratio (P. gingivalis NCTC 11834 [1]),MBC (S. mutans ATCC 25175 [3]),MIC/MBC ratio (S. mutans ATCC 25175 [3])
250 µg/mL,15.6 µg/mL,"CC(C)(C)c1cc(O)c(C(C)(C)C)cc1O [2,5-di-t-butyl-p-hydroquinone]",15.6 µg/mL,1,> 250 µg/mL,<0.5
125 µg/mL,3.9 µg/mL,"CCC(C)(C)c1cc(O)c(C(C)(C)CC)cc1O [2,5-di-t-pentyl-p-hydroquinone]",3.9 µg/mL,1,250 µg/mL,0.5
